Here are results for twelve compounds from ChEMBL document CHEMBL1201862, “PubChem BioAssay data set” (2004).

A word on the GI50: it is the concentration giving 50% growth inhibition.

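Five concentrations, 48 hours, 96-well plates. GI50: concentration for 50% inhibition of growth.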 Active and inactive are the calls of the source. No stated cut-off is given here; in the data, active = GI50 up to about 1.1 µM and inactive = higher. Bounds are passed on as bounds.

Common to all, as to assay: DTP human tumour cell line panel, 48 h
Assay [1] relates to 786-0.
In assay [2] the test system is A498.
Assay [3] relates to ACHN.
For assay [4], the system named is HCT-15.
Assay [5] relates to HL-60.
For assay [6], the system named is HOP-92.
The subject of assay [7] is K562.
For assay [8], the system named is KM12.
The subject of assay [9] is LOX IMVI.
The test system of assay [10] is MOLT-4.
Assay [11] relates to Malme-3M.
Assay [12] relates to NCI/ADR-RES.
For assay [13], the system named is PC-3.
Assay [14] relates to SF-268.
Assay [15] relates to SNB-75.
Assay [16] deals with CAKI-1.
Assay [17] has as its system HCC 2998.
Assay [18] deals with SNB-19.
In assay [19] the test system is T47D.

On to `OCC1(CNc2cc(Cl)ncn2)CCC1`, for which the GI50 in assay [1] is > 100 µM (inactive); in assay [2], > 100 µM (inactive); in [3] it was > 100 µM (inactive); in assay [4], greater than 100 µM; in assay [5] it was > 100 µM (inactive); in assay [6], > 100 µM (inactive). The GI50 in assay [7], in assay [8], in assay [9], in [10], in assay [11] and in assay [12] was > 100 µM (inactive) throughout. The GI50 in assay [13], in [14] and in assay [15] was > 100 µM (inactive) each time.
Take `Cn1nnc2c3c(N(CCO)CCO)ccnc3ccc21`: the GI50 is > 100 µM (inactive) in [1]; > 100 µM (inactive) in [3]; > 100 µM (inactive) in [16]; 29.7 µM (inactive) in assay [17]; greater than 100 µM in [4]; > 10 µM (inactive) in [5]. The GI50 in assay [7] was > 100 µM (inactive); in assay [8], 97.5 µM (inactive); in assay [9], > 100 µM (inactive); in [10] it was 47.4 µM (inactive); in assay [11], > 100 µM (inactive); in assay [12], > 100 µM (inactive). The GI50 in assay [13] is 65.6 µM (inactive); in [14] it was 87.5 µM (inactive); in assay [18], 49.1 µM (inactive); in assay [15], > 100 µM (inactive); in [19], 59.3 µM (inactive).
With `CCOC(=O)c1c(C)n(C)c2c1cc(O)c1[nH]c3c(c12)CCCC3`, the GI50 in assay [1] is 15.6 µM (inactive); in assay [3] it was 27.4 µM (inactive); in [16] it was 28.4 µM (inactive); in assay [4] it was 27.2 µM; in [5] it was 21.6 µM (inactive); in assay [6] it was 0.0185 µM (active). For the same compound, the GI50 is 17.3 µM (inactive) in [7]; 15 µM (inactive) in assay [8]; 14.5 µM (inactive) in [9]; 16.9 µM (inactive) in [10]; 7.66 µM (inactive) in [11]; 17.9 µM (inactive) in assay [12]. In addition, the GI50 in [13] is 18.3 µM (inactive); in [14], 2 µM (inactive); in [18], 38.4 µM (inactive); in [19], 18.2 µM (inactive).
Regarding `O=C1/C(=C/c2ccc(OC(=O)c3ccc(Cl)cc3)cc2)CCC/C1=C\c1ccc(OC(=O)c2ccc(Cl)cc2)cc1`, the GI50 is 55 µM (inactive) in assay [1]; > 100 µM (inactive) in assay [3]; > 100 µM (inactive) in assay [16]; > 100 µM (inactive) in [17]; greater than 100 µM in [4]; > 100 µM (inactive) in assay [5]. For the same compound, the GI50 in assay [6], in [8], in assay [9], in assay [10], in assay [12] and in [13] was > 100 µM (inactive) in each case. For the same compound, the GI50 in assay [14] is > 100 µM (inactive); in assay [18], > 100 µM (inactive); in assay [15] it was 21 µM (inactive); in assay [19] it was > 100 µM (inactive).
With `CCOC(=O)C(Cc1ccc(OC(=O)OC(C)(C)C)cc1)NC(=O)OC(C)(C)C` (stereo not given), the GI50 is 34.8 µM (inactive) in assay [1]; 74.1 µM (inactive) in [3]; > 100 µM (inactive) in [16]; 30.3 µM (inactive) in assay [17]; greater than 100 µM in [4]; 28.2 µM (inactive) in [5]. For the same compound, the GI50 in assay [7] is 76.4 µM (inactive); in assay [8] it was 70.6 µM (inactive); in [9] it was 44.1 µM (inactive); in assay [10], 19.7 µM (inactive); in assay [11] it was > 100 µM (inactive); in [12] it was 49.9 µM (inactive). The GI50 in [13] was 34.5 µM (inactive); in assay [14], 65.2 µM (inactive); in [18], > 100 µM (inactive); in [15], 17.1 µM (inactive); in assay [19], 29 µM (inactive).
For the compound `CC1=CC(=O)/C(=C/NC(=S)C(N)=S)C(=O)O1`, the GI50 in assay [1] was > 100 µM (inactive); in assay [3], > 100 µM (inactive); in [16] it was > 100 µM (inactive); in [17], > 100 µM (inactive); in [4] it was greater than 100 µM; in assay [5], 47.5 µM (inactive). Further, the GI50 in assay [6] is > 100 µM (inactive); in assay [7] it was > 100 µM (inactive); in [8] it was > 100 µM (inactive); in assay [9] it was > 100 µM (inactive); in assay [10], 16 µM (inactive); in assay [12], > 100 µM (inactive). Also, the GI50 was > 100 µM (inactive) in assay [13]; > 100 µM (inactive) in assay [14]; > 100 µM (inactive) in assay [18]; 19 µM (inactive) in assay [15]; > 100 µM (inactive) in [19].
Regarding `C/C(=C/C(=O)Nn1c(Cc2ccccc2)n[nH]c1=O)C(=O)O`, the GI50 in [1] was > 100 µM (inactive); in assay [3], > 100 µM (inactive); in [16] it was > 100 µM (inactive); in assay [17] it was > 100 µM (inactive); in assay [4], greater than 100 µM; in assay [5] it was > 100 µM (inactive). For the same compound, the GI50 in assay [7], in [8], in assay [9], in assay [10], in assay [11] and in [12] was > 100 µM (inactive) throughout. Besides, the GI50 in assay [13], in assay [14], in assay [18], in assay [15] and in assay [19] was > 100 µM (inactive) each time.
For the compound `COc1ccc(/C=C2/C(=O)N(/C=C3\C(=O)Oc4ccccc4C3=O)/C(=N/C(C)=O)N2C)cc1OC`, the GI50 in assay [1] was > 100 µM (inactive); in assay [3], > 100 µM (inactive); in [16], > 100 µM (inactive); in assay [17] it was > 100 µM (inactive); in assay [4], greater than 100 µM; in [5], > 100 µM (inactive). Moreover, the GI50 in assay [7], in [8], in [9], in assay [10], in assay [11] and in [12] was > 100 µM (inactive) in each case. Moreover, the GI50 in assay [13] is > 100 µM (inactive); in [14], > 100 µM (inactive); in assay [15], 45.9 µM (inactive); in [19], > 100 µM (inactive).
Take `CC(C)(C)NCc1cc(C(C)(C)C)cc(-c2ccc(Cl)cc2)c1O`: the GI50 in assay [1] is 13.9 µM (inactive); in [3], 13.8 µM (inactive); in assay [16] it was 12.6 µM (inactive); in assay [17], 14.7 µM (inactive); in assay [4] it was 11 µM; in assay [5], 5.33 µM (inactive). Also, the GI50 was 14.3 µM (inactive) in assay [6]; 13.2 µM (inactive) in assay [8]; 13.8 µM (inactive) in [11]; 14.6 µM (inactive) in assay [12]; 12.6 µM (inactive) in assay [14]; 15.7 µM (inactive) in [18]. In addition, the GI50 in [15] is 10.7 µM (inactive).
As to `O=Nc1c(-c2cccc([N+](=O)[O-])c2)nc2cnccn12`, the GI50 in assay [1] is 16 µM (inactive); in [3], 3.63 µM (inactive); in assay [16], 17 µM (inactive); in [4] it was 14.5 µM; in assay [5], 34.2 µM (inactive); in [6], 20 µM (inactive). Besides, the GI50 in assay [7] was 18.3 µM (inactive); in assay [8], 30.9 µM (inactive); in [9], 15.2 µM (inactive); in assay [10], 3.92 µM (inactive); in assay [11], 22.2 µM (inactive); in assay [12], 21.4 µM (inactive). In addition, the GI50 in [13] was 24.9 µM (inactive); in [14], 25.9 µM (inactive); in [18], > 100 µM (inactive); in assay [15] it was 35.2 µM (inactive); in [19], 15.1 µM (inactive).
Consider `C/C(=C\COP(=O)(O)OP(=O)(O)O)CC/C=C(\C)CNc1c(F)c(F)c(F)c(F)c1F`, for which the GI50 in assay [1] is > 100 µM (inactive); in assay [3], > 100 µM (inactive); in [16], > 100 µM (inactive); in [17] it was > 100 µM (inactive); in assay [4], greater than 100 µM; in [5], > 100 µM (inactive). Moreover, the GI50 was 82.2 µM (inactive) in assay [6]; > 100 µM (inactive) in assay [7]; > 100 µM (inactive) in assay [8]; > 100 µM (inactive) in assay [9]; > 100 µM (inactive) in [10]; > 100 µM (inactive) in assay [12]. For the same compound, the GI50 in [13] was 67.3 µM (inactive); in assay [14] it was > 100 µM (inactive); in assay [18], > 100 µM (inactive); in assay [15] it was 1.69 µM (inactive); in assay [19], > 100 µM (inactive).
On to `O=C(CC(=O)CC(O)(C(F)(F)F)C(F)(F)F)CC(O)(C(F)(F)F)C(F)(F)F`, for which the GI50 in assay [1] was > 10 µM (inactive); in assay [2] it was > 10 µM (inactive); in assay [3], > 10 µM (inactive); in [16] it was > 10 µM (inactive); in assay [4] it was greater than 10 µM; in [5], > 10 µM (inactive). In addition, the GI50 was 5.75 µM (inactive) in assay [6]; > 10 µM (inactive) in assay [7]; > 10 µM (inactive) in assay [8]; > 10 µM (inactive) in assay [9]; > 10 µM (inactive) in assay [10]; > 10 µM (inactive) in assay [11]. Also, the GI50 in assay [12], in [14], in assay [18], in [15] and in [19] was > 10 µM (inactive) in each case.
